Test system: Chinese hamster ovary cells (CHO cells)
Test: Evaluation of cellular uptake of FITC-labeled model drugs (flow cytometry, MFI)
Format: cell-based
Settings: 5 μg/mL, 2 hours incubation, n=3
Experimental: Cellular uptake evaluation of the model drugs described above was conducted using Examples 1 to 3 (polymeric compounds of Manufacturing Examples 1 to 3) or Comparative Examples 1 to 2 (compounds of Manufacturing Examples 4 and 5). A suspension of Ham's F-12 medium (manufactured by Fujifilm Wako Chemical Corporation) containing Chinese hamster ovary cells (CHO cells, 2×10^5 cells/mL) was prepared and seeded at 500μL/well to each well of a 24-well plate. The cells were incubated in a CO2 gas incubator (37° C., 5% CO2) for 24 hours.
Then, the compositions of the Examples and Comparative Examples (Table 1-6) were prepared by mixing 250 μL/well of Ham's F-12 medium containing the above model drugs and 250 μL/well of Ham's F-12 medium containing the manufacturing examples.
Then, the supernatant was removed from each well of the pre-cultured 24-well plate using an aspirator and the cells were washed twice with 500 μL/well of phosphate-buffered saline. Then, the aforementioned compositions were gently added to the wells and incubated in a carbon dioxide incubator for 2 hours. The number of experiments was n=3.
After 2 hours, the supernatants of medium were removed, and the cells were washed twice with 500 μL/well of phosphate-buffered saline. Then, 100 μL/well of trypsin-EDTA solution (0.25% trypsin, 1 mmol/L EDTA solution, Life Technologies) was added, and cultured CHO cells were detached from 24-well plates.
Then, 400 μL/well of trypan blue solution (Fujifilm Wako Chemical Corporation) was added to suspend the cells, and the cells were collected in microtubes. The collected cell suspensions were passed through a cell strainer, and the mean fluorescence intensity (MFI) was measured by flow cytometry. The cells without the polymeric compound (only the model drug was added) were used as controls.
While only the model drug introduced into the cells emits fluorescence. MFI represents the arithmetic average of the fluorescence intensity per cell, and a larger value of MFI indicates a more efficient intracellular uptake of the model drug.

O=C([O-])CCCCCCCNC(=O)c1ccccc1O.[Na+] [Comparative Example 2, Sodium salcaprozate]
MFI ± S.D. (Model drug: FITC-CTB (Molecular weight 11,000)): 3.7 ± 0.1
MFI ± S.D. (Model drug: FITC-INS (Molecular weight 5,800)): 19.7 ± 0.2
MFI ± S.D. (Model drug: FITC-IgG (Molecular weight 150,000)): 3.2 ± 0.1
MFI ± S.D. (Model drug: FITC-IgM (Molecular weight 900,000)): 3.1 ± 0.2
MFI ± S.D. (Model drug: FITC-OVA (Molecular weight 45,000)): 3.6 ± 0.4
MFI ± S.D. (Model drug: FITC-Tf (Molecular weight 77,000)): 6.7 ± 0.2

From US12715946B2, “Composition” (JOSHO GAKUEN EDUCATIONAL FOUNDATION, priority 2020, dated 2026)
